Measurements reported in ChEMBL document CHEMBL2074284, “Transport of ochratoxin A by renal multispecific organic anion transporter 1” (J Pharmacol Exp Ther, 1999).

What was measured:
[1] = target: T1, Solute carrier family 22 member 6 (Rattus norvegicus, UniProt O35956); assay: TP_TRANSPORTER: inhibition of Ochratoxin A uptake (OTA: 1 uM, Aspartame: 1000 uM) in Xenopus laevis oocytes; format: functional, cell-based; conditions: oocyte
T1 sequence (O35956 whole entry): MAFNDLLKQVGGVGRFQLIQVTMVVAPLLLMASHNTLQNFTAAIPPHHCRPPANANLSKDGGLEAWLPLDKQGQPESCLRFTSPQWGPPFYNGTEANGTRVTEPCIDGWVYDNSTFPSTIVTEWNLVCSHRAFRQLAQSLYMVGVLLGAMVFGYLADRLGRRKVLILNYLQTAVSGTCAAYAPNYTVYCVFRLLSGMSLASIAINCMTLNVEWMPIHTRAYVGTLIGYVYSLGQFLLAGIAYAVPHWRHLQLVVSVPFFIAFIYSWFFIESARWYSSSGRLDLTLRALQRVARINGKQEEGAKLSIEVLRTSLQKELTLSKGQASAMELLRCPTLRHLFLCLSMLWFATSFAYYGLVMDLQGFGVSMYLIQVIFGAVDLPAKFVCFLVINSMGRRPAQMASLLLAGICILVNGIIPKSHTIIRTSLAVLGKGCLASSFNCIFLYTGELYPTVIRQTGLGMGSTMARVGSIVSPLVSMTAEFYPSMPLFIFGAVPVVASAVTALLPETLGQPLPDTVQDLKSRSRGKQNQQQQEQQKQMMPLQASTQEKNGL

[2] = target: T1, Solute carrier family 22 member 6; assay: TP_TRANSPORTER: inhibition of Ochratoxin A uptake (OTA: 1 uM, Citrinin: 200 uM) in Xenopus laevis oocytes; format: functional, cell-based; conditions: oocyte

| Structure (SMILES) | Activity [1] | Activity [2] |
| --- | --- | --- |
| COC(=O)[C@H](Cc1ccccc1)NC(=O)[C@@H](N)CC(=O)O | is not an inhibitor [-] | – |
| CC1=C2C(=CO[C@H](C)[C@H]2C)C(O)=C(C(=O)O)C1=O [CITRININ] | – | inhibitor [(at a rough estimate) 20 % of control] |
